Several values for one entry are separate records, joined by “and”; a condition that tells them apart may be missing. Identical values can stand only once. Toxic doses and inconclusive results are not listed.
Tested on: P388 leukemia ip, CD2F1 mice, survival T/C
Assay: NCI In Vivo Anticancer Drug Screen. Data for tumor model P388 Leukemia (intraperitoneal) in CD2F1 (CDF1) mice
Conditions: endpoint: median survival time, higher = longer survival
Method in brief: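 Mice carrying the transplanted tumor received test compound or vehicle. Survival was recorded in each group, and the value is the treated-group measurement divided by that of the vehicle-treated control group.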

[1] = dose: 50.0 mg/kg/injection, schedule: Q01DX005 (ip), vehicle: saline with Tween-80
[2] = dose: 100.0 mg/kg/injection, schedule: Q01DX005 (ip), vehicle: saline with Tween-80
[3] = dose: 6.25 mg/kg/injection, schedule: Q01DX009 (ip), vehicle: saline
[4] = dose: 12.5 mg/kg/injection, schedule: Q01DX009 (ip), vehicle: saline
[5] = dose: 25.0 mg/kg/injection, schedule: Q01DX009 (ip), vehicle: saline
[6] = dose: 50.0 mg/kg/injection, schedule: Q01DX009 (ip), vehicle: saline
[7] = dose: 60.0 mg/kg/injection, schedule: Q01DX005 (ip), vehicle: saline with Tween-80
[8] = dose: 120.0 mg/kg/injection, schedule: Q01DX005 (ip), vehicle: saline with Tween-80
[9] = dose: 240.0 mg/kg/injection, schedule: Q01DX005 (ip), vehicle: saline with Tween-80
[10] = dose: 100.0 mg/kg/injection, schedule: Q01DX009 (ip), vehicle: saline
[11] = dose: 200.0 mg/kg/injection, schedule: Q01DX009 (ip), vehicle: saline
[12] = dose: 50.0 mg/kg/injection, schedule: Q01DX005 (ip), vehicle: Klucel (hydroxypropylcellulose) (HPC)
[13] = dose: 100.0 mg/kg/injection, schedule: Q01DX005 (ip), vehicle: Klucel (hydroxypropylcellulose) (HPC)
[14] = dose: 200.0 mg/kg/injection, schedule: Q01DX005 (ip), vehicle: Klucel (hydroxypropylcellulose) (HPC)

NC(=O)C(Br)(Br)C(=O)c1nc(N)nc(N)n1
T/C [1]: 107 % of control | T/C [2]: 99 % of control

NNc1ncnc2nc[nH]c12
T/C (dose: 6.25 mg/kg/injection, schedule: Q01DX009 (ip), vehicle: saline sonified): 95 % of control | T/C [3]: 100 % of control | T/C (dose: 6.25 mg/kg/injection, schedule: Q01DX009 (ip), vehicle: suspension in saline): 111 % of control | T/C (dose: 12.5 mg/kg/injection, schedule: Q01DX009 (ip), vehicle: saline sonified): 100 % of control | T/C [4]: 100 % of control | T/C (dose: 12.5 mg/kg/injection, schedule: Q01DX009 (ip), vehicle: suspension in saline): 100 % of control | T/C (dose: 25.0 mg/kg/injection, schedule: Q01DX009 (ip), vehicle: saline sonified): 120 % of control | T/C [5]: 106 % of control | T/C (dose: 25.0 mg/kg/injection, schedule: Q01DX009 (ip), vehicle: suspension in saline): 103 % of control | T/C (dose: 50.0 mg/kg/injection, schedule: Q01DX009 (ip), vehicle: suspension in saline): 119 % of control | T/C (dose: 100.0 mg/kg/injection, schedule: Q04DX003 (ip), vehicle: saline sonified): 109 % of control | T/C (dose: 200.0 mg/kg/injection, schedule: Q04DX003 (ip), vehicle: saline sonified): 90 % of control

NCCc1cc(O)c(O)cc1O
T/C [3]: 101 % of control and 105 % of control | T/C [4]: 107 % of control and 97 % of control | T/C [5]: 101 % of control and 109 % of control | T/C [6]: 100 % of control and 111 % of control

C[As](C)SCC1OC(n2ccc(=O)[nH]c2=O)C2OC(C)(C)OC12 (stereo not given)
T/C (dose: 12.5 mg/kg/injection, schedule: Q01DX009 (ip), vehicle: distilled water + Tween-80): 103 % of control | T/C (dose: 25.0 mg/kg/injection, schedule: Q01DX009 (ip), vehicle: distilled water + Tween-80): 110 % of control | T/C (dose: 50.0 mg/kg/injection, schedule: Q01DX009 (ip), vehicle: distilled water + Tween-80): 116 % of control | T/C (dose: 100.0 mg/kg/injection, schedule: Q01DX009 (ip), vehicle: distilled water + Tween-80): 113 % of control

CN(C/C(=N/O)c1ccccc1)C(=O)c1ccccc1
T/C (dose: 50.0 mg/kg/injection, schedule: Q01DX005 (ip), vehicle: saline): 98 % of control | T/C (dose: 100.0 mg/kg/injection, schedule: Q01DX005 (ip), vehicle: saline): 100 % of control | T/C (dose: 200.0 mg/kg/injection, schedule: Q01DX005 (ip), vehicle: saline): 97 % of control

COC(=O)c1nnn(-c2cc(Cl)ccc2Cl)c1C(=O)c1ccc(Cl)c(Cl)c1
T/C [7]: 99 % of control | T/C [8]: 96 % of control | T/C [9]: 87 % of control

C[C@]12CC[C@@H]3c4ccc(OCCO)c([N+](=O)[O-])c4CC[C@H]3[C@@H]1CCC2=O
T/C [1]: 104 % of control | T/C [2]: 104 % of control | T/C (dose: 200.0 mg/kg/injection, schedule: Q01DX005 (ip), vehicle: saline with Tween-80): 97 % of control

CN(C)c1ccc(/C=C2\SC(=S)N(CCCN3CCOCC3)C2=O)cc1
T/C (dose: 50.0 mg/kg/injection, schedule: Q01DX009 (ip), vehicle: saline with Tween-80): 91 % of control | T/C (dose: 100.0 mg/kg/injection, schedule: Q01DX009 (ip), vehicle: saline with Tween-80): 90 % of control | T/C (dose: 200.0 mg/kg/injection, schedule: Q01DX009 (ip), vehicle: saline with Tween-80): 87 % of control

Cc1cc(C)[s+]s1
T/C (dose: 12.5 mg/kg/injection, schedule: Q01DX009 (ip), vehicle: water): 109 % of control | T/C (dose: 25.0 mg/kg/injection, schedule: Q01DX009 (ip), vehicle: water): 109 % of control | T/C (dose: 50.0 mg/kg/injection, schedule: Q01DX009 (ip), vehicle: water): 115 % of control | T/C (dose: 100.0 mg/kg/injection, schedule: Q01DX009 (ip), vehicle: water): 117 % of control

C/C(=N/NS(=O)(=O)c1ccc(C)cc1)C(=NO)/C(C)=N\NS(=O)(=O)c1ccc(C)cc1
T/C [6]: 92 % of control | T/C [10]: 100 % of control | T/C [11]: 101 % of control

C=[CH][Sn]([Cl])([Cl])[CH]=C.COc1ccc(P(=O)(c2ccc(OC)cc2)c2ccc(OC)cc2)cc1
T/C (dose: 25.0 mg/kg/injection, schedule: Q04DX003 (ip), vehicle: saline): 100 % of control and 113 % of control | T/C (dose: 50.0 mg/kg/injection, schedule: Q04DX003 (ip), vehicle: saline): 100 % of control and 111 % of control | T/C (dose: 100.0 mg/kg/injection, schedule: Q04DX003 (ip), vehicle: saline): 100 % of control and 115 % of control and 120 % of control | T/C (dose: 200.0 mg/kg/injection, schedule: Q04DX003 (ip), vehicle: saline): 100 % of control and 111 % of control | T/C (dose: 400.0 mg/kg/injection, schedule: Q04DX003 (ip), vehicle: saline): 117 % of control

CC(Cc1ccccc1)N(C)Cc1ccc(-c2ccccc2)o1 (stereo not given)
T/C [7]: 100 % of control | T/C [8]: 108 % of control | T/C [9]: 109 % of control

O=C1C2CCCN2C(=S)N1c1ccc([N+](=O)[O-])cc1 (stereo not given)
T/C [12]: 100 % of control | T/C [13]: 100 % of control | T/C [14]: 99 % of control

COc1cc(C2c3cc4c(cc3[C@@H](OC3OC5CO[C@@H](c6cccs6)OC5C(O)C3O)[C@H]3COC(=O)C23)OCO4)cc(OC)c1OC (stereo not given in full)
T/C (dose: 2.0 mg/kg/injection, schedule: Q01DX005 (ip), vehicle: saline): 123 % of control | T/C (dose: 8.0 mg/kg/injection, schedule: Q01DX005 (ip), vehicle: saline): 155 % of control | T/C (dose: 16.0 mg/kg/injection, schedule: Q01DX005 (ip), vehicle: saline): 175 % of control and 185 % of control | T/C (dose: 32.0 mg/kg/injection, schedule: Q01DX005 (ip), vehicle: saline): 203 % of control | T/C (dose: 64.0 mg/kg/injection, schedule: Q01DX005 (ip), vehicle: saline): 225 % of control

C/C=C1/CN2C3CC1C1(C(=O)OC)C(OC(C)=O)[C@]4(C[C@H]21)c1ccccc1N(C)C34 (stereo not given in full)
T/C (dose: 3.0 mg/kg/injection, schedule: Q01DX005 (ip), vehicle: Klucel (hydroxypropylcellulose) (HPC)): 94 % of control | T/C (dose: 6.0 mg/kg/injection, schedule: Q01DX005 (ip), vehicle: Klucel (hydroxypropylcellulose) (HPC)): 100 % of control | T/C (dose: 12.0 mg/kg/injection, schedule: Q01DX005 (ip), vehicle: Klucel (hydroxypropylcellulose) (HPC)): 98 % of control | T/C (dose: 24.0 mg/kg/injection, schedule: Q01DX005 (ip), vehicle: Klucel (hydroxypropylcellulose) (HPC)): 106 % of control

COc1cc(/C=C/C2=C(C)C(=O)CC(c3cc(OC)cc(OC)c3)C2C)cc(OC)c1 (stereo not given)
T/C (dose: 12.5 mg/kg/injection, schedule: Q04DX003 (ip), vehicle: Klucel (hydroxypropylcellulose) (HPC)): 100 % of control | T/C (dose: 25.0 mg/kg/injection, schedule: Q04DX003 (ip), vehicle: Klucel (hydroxypropylcellulose) (HPC)): 98 % of control | T/C (dose: 50.0 mg/kg/injection, schedule: Q04DX003 (ip), vehicle: Klucel (hydroxypropylcellulose) (HPC)): 95 % of control

C[N+](C)(C)CC(C[N+](C)(C)C)C(=O)c1ccccc1
T/C (dose: 6.25 mg/kg/injection, schedule: Q01DX009 (ip), vehicle: Klucel (hydroxypropylcellulose) (HPC)): 107 % of control | T/C (dose: 12.5 mg/kg/injection, schedule: Q01DX009 (ip), vehicle: Klucel (hydroxypropylcellulose) (HPC)): 108 % of control

COC(=O)CCC1=C(C)c2cc3cc(C)c(cc4cc(C)c(cc5nc(cc1n2)C(CCC(=O)OC)=C5C)[nH]4)[nH]3
T/C (dose: 0.75 mg/kg/injection, schedule: Q01DX005 (ip), vehicle: saline with Tween-80): 96 % of control | T/C (dose: 1.5 mg/kg/injection, schedule: Q01DX005 (ip), vehicle: saline with Tween-80): 98 % of control | T/C (dose: 3.0 mg/kg/injection, schedule: Q01DX005 (ip), vehicle: saline with Tween-80): 91 % of control | T/C (dose: 3.12 mg/kg/injection, schedule: Q01DX005 (ip), vehicle: saline with Tween-80): 90 % of control

CCOC(=O)c1cccc(N)c1C(=O)OCCN(CC)CC
T/C [12]: 93 % of control | T/C [13]: 87 % of control | T/C [14]: 99 % of control

COC(=O)[C@@H]1[C@H](O)[C@H](C)[C@H](O)[C@H](C)/C=C\C=C(C)C(=O)Nc2c(C)c(OC(C)=O)c3c(c2O)C(=O)C(C)=C2OCOC(=C23)C(C)=C[C@@](C)(O)[C@H](O)[C@@H](C)[C@H]1OC(C)=O
T/C [6]: 96 % of control | T/C [10]: 109 % of control and 96 % of control | T/C [11]: 99 % of control and 122 % of control | T/C (dose: 400.0 mg/kg/injection, schedule: Q01DX009 (ip), vehicle: saline): 100 % of control

O=[N+]([O-])CC1CCCCC1O (stereo not given)
T/C (dose: 6.25 mg/kg/injection, schedule: Q01DX009 (ip), vehicle: saline with Tween-80): 100 % of control | T/C (dose: 12.5 mg/kg/injection, schedule: Q01DX009 (ip), vehicle: saline with Tween-80): 100 % of control | T/C (dose: 25.0 mg/kg/injection, schedule: Q01DX009 (ip), vehicle: saline with Tween-80): 90 % of control
